# Data as given in PubChem BioAssay (NCI).
#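 Step 1: Grow cells in 96-well plates. Step 2: Expose to compound for 48 hours at 5 concentrations. Step 3: Interpolate endpoints linearly; if unreached, use highest concentration. GI50: concentration for 50% inhibition of growth. The concentration for full growth arrest is given as TGI.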
# What was measured:
# Assay in all cases: NCI anticancer screen, dose series, 48 h
# [1] = test system: OVCAR-8 ovarian
# [2] = test system: OVCAR-5 ovarian
# [3] = test system: UO-31 renal
# [4] = test system: CCRF-CEM leukemia
# [5] = test system: MOLT-4 leukemia
# [6] = test system: NCI-H522 lung
# [7] = test system: SN12C renal
# [8] = test system: HOP-92 NSCLC
# [9] = test system: UACC-62 melanoma
# [10] = test system: SK-MEL-5 melanoma
SMILES,GI50 [1] [µM],TGI [1] [µM],GI50 [2] [µM],TGI [2] [µM],GI50 [3] [µM],TGI [3] [µM],GI50 [4] [µM],TGI [4] [µM],GI50 [5] [µM],TGI [5] [µM],GI50 [6] [µM],TGI [6] [µM],GI50 [7] [µM],TGI [7] [µM],GI50 [8] [µM],TGI [8] [µM],GI50 [9] [µM],TGI [9] [µM],GI50 [10] [µM],TGI [10] [µM]
COc1cc(/C=C2\C(=O)Nc3ccc(O)cc32)cc(OC)c1OC,18.3,65.6,17.5,33.5,12.1,33.3,4.34,34.4,1.24,28.5,4.24,17.1,15.5,72.2,7.92,30.2,11.7,26.6,6.31,25.1
CCOC(=O)/C(C#N)=c1/s/c(=C(\O)N/N=C/c2ccc(OC)cc2)c(=N)n1-c1ccccc1,,> 100,,> 100,,> 100,,> 100,,> 100,,> 100,,,,> 100,,> 100,,> 100
CS(=O)(=O)Sc1ccc(Cl)cc1,,21.8,,31.5,,13.3,,8.89,,21.7,,9.47,,16,,20,,,,20.2
O[C@@H]1CCCCN1Cc1cc2cc3c(cc2c2cc(OCc4ccccc4)ccc12)OCO3,1.19,3.03,1.73,3.93,1.53,2.89,0.176,4.61,0.666,8.05,1.49,2.91,1.42,2.77,1.35,2.93,1.89,3.46,1.62,3.09
CCCCCCCCCCCCOC(=N)N1CCOCC1,,33.5,,28.5,,26.8,,9.44,,6.89,,30.4,,> 52.3,,13.8,,24.7,,23.4
Nc1ccc(Oc2ccc(C3(c4ccc(Oc5ccc(N)c(O)c5)cc4)C4CC5CC(C4)CC3C5)cc2)cc1O,,,,5.75,,3.82,,6.47,,4.08,,3.06,,3.62,,8.94,,7.68,,3.02
O=c1cc(O)c1=O,,> 100,,> 100,,> 100,,> 100,,> 100,,> 100,,> 100,,> 100,,> 100,,> 100
CC(C)OP(=O)(OC(C)C)C(=Nc1ccc(N=C(NNc2ccc([N+](=O)[O-])cc2)P(=O)(OC(C)C)OC(C)C)cc1)NNc1ccc([N+](=O)[O-])cc1,,> 100,,> 100,,> 100,,> 100,,> 100,,> 100,,> 100,,> 100,,6.7,,> 100
